Measured values from the NIST ThermoML archive (doi:10.1016/j.jct.2016.11.002).

Columns and labels:
[1] = refractive index (Na D-line) (dimensionless); xn = mol fraction of the nth substance listed; conditions: 100 kPa, Liquid, Standard Abbe refractometry
[2] = xn = mol fraction of the nth substance listed; conditions: 100 kPa, Liquid; for speed of sound: Frequency=3 MHz, Single path-length method; for mass density: Vibrating tube method

CCOCCO [2-ethoxyethan-1-ol] + CCOC(=O)OCC
Conditions	mass density, [2] [kg/m3]	refractive index, [1]	speed of sound, [2] [m/s]
298.15 K, x2 = 0	925.54	1.4055	1302.8
298.15 K, x2 = 0.0957	929.94	1.4036	1287
298.15 K, x2 = 0.1529	932.54	1.4025	1278.3
298.15 K, x2 = 0.2624	937.43	1.4003	1262.2
298.15 K, x2 = 0.3484	941.21	1.3985	1250
298.15 K, x2 = 0.4447	945.38	1.3963	1236.7
298.15 K, x2 = 0.5468	949.76	1.3939	1223.5
298.15 K, x2 = 0.6539	954.3	1.3912	1210.8
298.15 K, x2 = 0.7721	959.31	1.3882	1198.3
298.15 K, x2 = 0.8793	963.87	1.3855	1188
303.15 K, x2 = 0	920.99	1.4042	1285
303.15 K, x2 = 0.0957	925.24	1.4024	1268.9
303.15 K, x2 = 0.1529	927.76	1.4012	1259.8
303.15 K, x2 = 0.2624	932.5	1.3989	1243.4
303.15 K, x2 = 0.3484	936.17	1.397	1230.7
303.15 K, x2 = 0.4447	940.24	1.3947	1217.3
303.15 K, x2 = 0.5468	944.5	1.3921	1204
303.15 K, x2 = 0.6539	948.94	1.3894	1191.1
303.15 K, x2 = 0.7721	953.83	1.3862	1178.3
303.15 K, x2 = 0.8793	958.31	1.3834	1167.8
308.15 K, x2 = 0	916.41	1.4028	1267.3
308.15 K, x2 = 0.0957	920.51	1.4011	1250.7
308.15 K, x2 = 0.1529	922.94	1.3999	1241.3
308.15 K, x2 = 0.2624	927.54	1.3975	1224.6
308.15 K, x2 = 0.3484	931.11	1.3954	1211.9
308.15 K, x2 = 0.4447	935.08	1.393	1198.3
308.15 K, x2 = 0.5468	939.21	1.3904	1184.7
308.15 K, x2 = 0.6539	943.54	1.3875	1171.6
308.15 K, x2 = 0.7721	948.31	1.3843	1158.4
308.15 K, x2 = 0.8793	952.72	1.3813	1147.6
313.15 K, x2 = 0	911.8	1.4016	1249.6
313.15 K, x2 = 0.0957	915.76	1.3999	1232.5
313.15 K, x2 = 0.1529	918.09	1.3987	1223
313.15 K, x2 = 0.2624	922.55	1.3961	1205.9
313.15 K, x2 = 0.3484	926	1.3939	1193
313.15 K, x2 = 0.4447	929.84	1.3914	1179.3
313.15 K, x2 = 0.5468	933.88	1.3886	1165.6
313.15 K, x2 = 0.6539	938.09	1.3857	1152.1
313.15 K, x2 = 0.7721	942.77	1.3823	1138.6
313.15 K, x2 = 0.8793	947.11	1.3792	1127.5
318.15 K, x2 = 0	907.15	1.4001	1232
318.15 K, x2 = 0.0957	910.93	1.3986	1214.4
318.15 K, x2 = 0.1529	913.21	1.3973	1204.6
318.15 K, x2 = 0.2624	917.51	1.3946	1187.2
318.15 K, x2 = 0.3484	920.86	1.3923	1174.3
318.15 K, x2 = 0.4447	924.57	1.3897	1160.4
318.15 K, x2 = 0.5468	928.49	1.3868	1146.6
318.15 K, x2 = 0.6539	932.6	1.3838	1132.8
318.15 K, x2 = 0.7721	937.19	1.3804	1119
318.15 K, x2 = 0.8793	941.45	1.377	1107.8
323.15 K, x2 = 0	902.46	1.3988	1214.3
323.15 K, x2 = 0.0957	906.11	1.3973	1196.3
323.15 K, x2 = 0.1529	908.28	1.396	1186.3
323.15 K, x2 = 0.2624	912.44	1.3931	1168.7
323.15 K, x2 = 0.3484	915.7	1.3907	1155.6
323.15 K, x2 = 0.4447	919.3	1.388	1141.6
323.15 K, x2 = 0.5468	923.1	1.3851	1127.5
323.15 K, x2 = 0.6539	927.1	1.382	1113.6
323.15 K, x2 = 0.7721	931.58	1.3784	1099.6
323.15 K, x2 = 0.8793	935.76	1.3749	1088.1
